Experimental data as given in PubChem BioAssay (NCI).
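96-well plates; 48 h exposure; 5 concentrations. Endpoints by linear interpolation between flanking doses. Not reached: highest tested concentration assigned. Definition used: TGI = concentration required for complete inhibition of growth.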

Assays:
Assay in all cases: inhibition of tumour cell growth, NCI panel, 48 h
TK-10 renal = tested on: TK-10 renal
NCI-H226 lung = tested on: NCI-H226 lung
COLO 205 colon = tested on: COLO 205 colon
SNB-75 CNS = tested on: SNB-75 CNS
SNB-19 CNS = tested on: SNB-19 CNS
OVCAR-8 ovarian = tested on: OVCAR-8 ovarian
OVCAR-3 ovarian = tested on: OVCAR-3 ovarian
BT-549 breast = tested on: BT-549 breast
UACC-257 melanoma = tested on: UACC-257 melanoma
SW-620 colon = tested on: SW-620 colon
SR leukemia = tested on: SR leukemia
LOX IMVI melanoma = tested on: LOX IMVI melanoma
HL-60(TB) leukemia = tested on: HL-60(TB) leukemia
SF-295 CNS = tested on: SF-295 CNS
PC-3 prostate = tested on: PC-3 prostate
MOLT-4 leukemia = tested on: MOLT-4 leukemia
SK-MEL-2 melanoma = tested on: SK-MEL-2 melanoma
786-0 renal = tested on: 786-0 renal
MDA-MB-231 breast = tested on: MDA-MB-231 breast
HOP-62 NSCLC = tested on: HOP-62 NSCLC
HS 578T breast = tested on: HS 578T breast
HT29 colon = tested on: HT29 colon
HCT-116 colon = tested on: HCT-116 colon
KM12 colon = tested on: KM12 colon
NCI/ADR-RES ovarian = tested on: NCI/ADR-RES ovarian
SN12C renal = tested on: SN12C renal
ACHN renal = tested on: ACHN renal
HCT-15 colon = tested on: HCT-15 colon
K-562 leukemia = tested on: K-562 leukemia
A498 renal = tested on: A498 renal
HCC-2998 colon = tested on: HCC-2998 colon
OVCAR-4 ovarian = tested on: OVCAR-4 ovarian
EKVX NSCLC = tested on: EKVX NSCLC
NCI-H522 lung = tested on: NCI-H522 lung
UO-31 renal = tested on: UO-31 renal
CAKI-1 renal = tested on: CAKI-1 renal
UACC-62 melanoma = tested on: UACC-62 melanoma
NCI-H23 lung = tested on: NCI-H23 lung
NCI-H460 lung = tested on: NCI-H460 lung
U251 CNS = tested on: U251 CNS
SK-MEL-5 melanoma = tested on: SK-MEL-5 melanoma
IGROV1 ovarian = tested on: IGROV1 ovarian
SK-MEL-28 melanoma = tested on: SK-MEL-28 melanoma
MALME-3M melanoma = tested on: MALME-3M melanoma
MCF7 breast = tested on: MCF7 breast
MDA-MB-435 = tested on: MDA-MB-435
SF-268 CNS = tested on: SF-268 CNS
RXF 393 renal = tested on: RXF 393 renal
MDA-N = tested on: MDA-N
OVCAR-5 ovarian = tested on: OVCAR-5 ovarian
SK-OV-3 ovarian = tested on: SK-OV-3 ovarian
M14 melanoma = tested on: M14 melanoma
A549 NSCLC = tested on: A549 NSCLC
DU-145 prostate = tested on: DU-145 prostate
RPMI-8226 leukemia = tested on: RPMI-8226 leukemia
T-47D breast = tested on: T-47D breast
HOP-92 NSCLC = tested on: HOP-92 NSCLC
SF-539 CNS = tested on: SF-539 CNS

O=C(O)c1nc2ccc(C(F)(F)F)cc2nc1Nc1ccc(Cl)c(Cl)c1
TGI (TK-10 renal): > 100 µM
TGI (NCI-H226 lung): 24.9 µM
TGI (COLO 205 colon): 25.7 µM
TGI (SNB-75 CNS): 29 µM
TGI (SNB-19 CNS): 10.9 µM
TGI (OVCAR-8 ovarian): 17.6 µM
TGI (OVCAR-3 ovarian): 23.9 µM
TGI (BT-549 breast): 14.7 µM
TGI (UACC-257 melanoma): 56.4 µM
TGI (SW-620 colon): 24.1 µM
TGI (SR leukemia): 14 µM
TGI (LOX IMVI melanoma): 21.5 µM
TGI (HL-60(TB) leukemia): 21.9 µM
TGI (SF-295 CNS): 17 µM
TGI (PC-3 prostate): 15.8 µM
TGI (MOLT-4 leukemia): 17.3 µM
TGI (SK-MEL-2 melanoma): 11.2 µM
TGI (786-0 renal): 23.7 µM
TGI (MDA-MB-231 breast): 26.7 µM
TGI (HOP-62 NSCLC): 20.6 µM
TGI (HS 578T breast): 41.6 µM
TGI (HT29 colon): 27.1 µM
TGI (HCT-116 colon): 17.1 µM
TGI (KM12 colon): 20.5 µM
TGI (NCI/ADR-RES ovarian): 19.7 µM
TGI (SN12C renal): 22.1 µM
TGI (ACHN renal): 49.7 µM
TGI (HCT-15 colon): 22.6 µM
TGI (K-562 leukemia): 16.3 µM
TGI (A498 renal): 27.4 µM
TGI (HCC-2998 colon): 17.6 µM
TGI (OVCAR-4 ovarian): 76.1 µM
TGI (EKVX NSCLC): 22.8 µM
TGI (NCI-H522 lung): 15.2 µM
TGI (UO-31 renal): 18.2 µM
TGI (CAKI-1 renal): 30.6 µM
TGI (UACC-62 melanoma): 18 µM
TGI (NCI-H23 lung): 19 µM
TGI (NCI-H460 lung): 20.8 µM
TGI (U251 CNS): 14.7 µM
TGI (SK-MEL-5 melanoma): 23.7 µM
TGI (IGROV1 ovarian): 34.7 µM
TGI (SK-MEL-28 melanoma): 26.6 µM
TGI (MALME-3M melanoma): 31 µM
TGI (MCF7 breast): 66.7 µM
TGI (MDA-MB-435): 19.1 µM
TGI (SF-268 CNS): 21.9 µM
TGI (RXF 393 renal): 28.9 µM
TGI (MDA-N): 25.3 µM
TGI (OVCAR-5 ovarian): 28.9 µM

CO/N=C\c1ccc2c(c1)Sc1ccccc1O2
TGI (TK-10 renal): > 100 µM
TGI (NCI-H226 lung): > 100 µM
TGI (COLO 205 colon): > 100 µM
TGI (SK-OV-3 ovarian): > 100 µM
TGI (SNB-75 CNS): > 100 µM
TGI (SNB-19 CNS): > 100 µM
TGI (M14 melanoma): > 100 µM
TGI (OVCAR-8 ovarian): > 100 µM
TGI (OVCAR-3 ovarian): > 100 µM
TGI (UACC-257 melanoma): > 100 µM
TGI (SW-620 colon): > 100 µM
TGI (A549 NSCLC): > 100 µM
TGI (DU-145 prostate): > 100 µM
TGI (SR leukemia): > 100 µM
TGI (LOX IMVI melanoma): > 100 µM
TGI (RPMI-8226 leukemia): > 100 µM
TGI (HL-60(TB) leukemia): > 100 µM
TGI (SF-295 CNS): > 100 µM
TGI (PC-3 prostate): > 100 µM
TGI (MOLT-4 leukemia): > 100 µM
TGI (SK-MEL-2 melanoma): > 100 µM
TGI (786-0 renal): > 100 µM
TGI (MDA-MB-231 breast): > 100 µM
TGI (HOP-62 NSCLC): > 100 µM
TGI (HS 578T breast): 97.3 µM
TGI (HT29 colon): > 100 µM
TGI (HCT-116 colon): > 100 µM
TGI (KM12 colon): > 100 µM
TGI (NCI/ADR-RES ovarian): > 100 µM
TGI (T-47D breast): > 100 µM
TGI (SN12C renal): > 100 µM
TGI (ACHN renal): > 100 µM
TGI (HCT-15 colon): > 100 µM
TGI (K-562 leukemia): > 100 µM
TGI (A498 renal): > 100 µM
TGI (HCC-2998 colon): > 100 µM
TGI (OVCAR-4 ovarian): > 100 µM
TGI (EKVX NSCLC): > 100 µM
TGI (HOP-92 NSCLC): > 100 µM
TGI (UO-31 renal): > 100 µM
TGI (CAKI-1 renal): > 100 µM
TGI (UACC-62 melanoma): > 100 µM
TGI (NCI-H23 lung): > 100 µM
TGI (NCI-H460 lung): > 100 µM
TGI (U251 CNS): > 100 µM
TGI (IGROV1 ovarian): > 100 µM
TGI (SK-MEL-28 melanoma): > 100 µM
TGI (MALME-3M melanoma): > 100 µM
TGI (SF-539 CNS): > 100 µM
TGI (MCF7 breast): > 100 µM
TGI (MDA-MB-435): > 100 µM
TGI (SF-268 CNS): > 100 µM
TGI (RXF 393 renal): > 100 µM
TGI (MDA-N): > 100 µM
TGI (OVCAR-5 ovarian): > 100 µM
